Results on 23 compounds are retold here after patent publication US11554171B2, “Compounds and methods for the targeted degradation of bromodomain-containing proteins” (Arvinas Operations, Inc., priority 2015, dated 2023).

The test system of the assay is c-myc in 22RV-1 cells. Description: Human c-myc ELISA assay. In kind it is cell-based. The following applies: Homo sapiens; for Emax: 22Rv1, 18 h, read-out: Degradation of BRD4: Maximum inhibition (%) c-Myc ELISA in 22RV1 cells; for DC50: 22Rv1, read-out: Degradation of BRD4: DC50 (uM) c-Myc ELISA in 22RV1 cells. The essentials:
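22RV-1 cells treated 18 h with 8-point 1:3 compound dilutions (final top 300 nM or 1 μM, 0.1% DMSO). Cells lysed in RIPA buffer with protease/phosphatase inhibitors, and c-myc protein in cleared lysate quantified by ELISA against a standard curve. DC50 reported for c-myc suppression.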
For orientation: ELISA stands for enzyme-linked immunosorbent assay.

The DC50 is the midpoint of the concentration-degradation curve. Consider `Cc1ncsc1-c1ccc([C@H](C)NC(=O)[C@@H]2C[C@@H](O)CN2C(=O)[C@H](C(C)C)n2cc(-c3cc(O[C@H]4C[C@H](NC(=O)C[C@@H]5N=C(c6ccc(Cl)cc6)c6c(sc(C)c6C)-n6c(C)nnc65)C4)ccn3)cn2)cc1` [Example 304], for which the Emax worked out at 95% and the DC50 lay within 0.01 to 0.1 µM.

As to `Cc1ncsc1-c1ccc(CNC(=O)[C@@H]2C[C@@H](O)CN2C(=O)[C@H](C(C)C)n2cc(-c3ccnc(O[C@@H](C)CNC(=O)C[C@@H]4N=C(c5ccc(Cl)cc5)c5c(sc(C)c5C)-n5c(C)nnc54)c3)cn2)cc1` [Example 180], the Emax stood at 98.5% and the DC50 was in the range of 0.01 to 0.1 µM.

For the compound `Cc1ncsc1-c1ccc(CNC(=O)[C@@H]2C[C@@H](O)CN2C(=O)[C@@H](NC(=O)COc2ccccc2O[C@H]2C[C@@H](NC(=O)C[C@@H]3N=C(c4ccc(Cl)cc4)c4c(sc(C)c4C)-n4c(C)nnc43)C2)C(C)(C)C)cc1` [Example 190], the Emax was found to be 91% and the 50% degradation concentration (DC50) is 0.01 to 0.1 µM.

On to `Cc1ncsc1-c1ccc([C@H](C)NC(=O)[C@H]2C[C@H](O)CN2C(=O)[C@@H](NC(=O)CN2CCC(O[C@H]3C[C@H](NC(=O)C[C@@H]4N=C(c5ccc(Cl)cc5)c5c(sc(C)c5C)-n5c(C)nnc54)C3)CC2)C(C)(C)C)cc1` [Example 345], for which the Emax was less than 5% and the DC50 is greater than 1 µM.

Regarding `Cc1ncsc1-c1ccc(CNC(=O)[C@@H]2C[C@@H](O)CN2C(=O)[C@@H](NC(=O)COCCOCCOCCCCOCCOCCNC(=O)C[C@@H]2N=C(c3ccc(Cl)cc3)c3c(sc(C)c3C)-n3c(C)nnc32)C(C)(C)C)cc1` [Example 9], the Emax was found to be 96.4% and the 50% degradation concentration (DC50) was in the range of 0.1 to 1 µM.

Take `Cc1ncsc1-c1ccc([C@H](C)NC(=O)[C@@H]2C[C@@H](O)CN2C(=O)[C@@H](NC(=O)COC[C@@H](O)CN2CCN(C(=O)C[C@@H]3N=C(c4ccc(Cl)cc4)c4c(sc(C)c4C)-n4c(C)nnc43)CC2)C(C)(C)C)cc1` [Example 329]: the Emax is less than 5% and the DC50 is greater than 1 µM.

On to `Cc1ncsc1-c1ccc([C@H](C)NC(=O)[C@@H]2C[C@@H](O)CN2C(=O)[C@@H](NC(=O)CN2CCC(O[C@H]3C[C@H](NC(=O)c4ccc5c6ncc(-c7c(C)noc7C)cc6n([C@@H](c6ccccc6)C6CCOCC6)c5c4)C3)CC2)C(C)(C)C)cc1` [Example 366, (2S,4R)-1-[(2S)-3,3-dimethyl-2-(2-{4-[(1,3-trans)-3-[3-(dimethyl-1,2-oxazol-4-yl)-5-[(R)-oxan-4-yl(phenyl)methyl]-5H-pyrido[3,2-b]indole-7-amido]cyclobutoxy]piperidin-1-yl}acetamido)butanoyl]-4-hydroxy-N-[(1S)-1-[4-(4-methyl-1,3-thiazol-5-yl)phenyl]ethyl]pyrrolidine-2-carboxamide], for which the Emax was 100% and the 50% degradation concentration (DC50) was less than 0.01 µM.

As for `Cc1ncsc1-c1ccc([C@H](C)NC(=O)[C@@H]2C[C@@H](O)CN2C(=O)[C@@H](NC(=O)c2ccc(OCCCNC(=O)C[C@@H]3N=C(c4ccc(Cl)cc4)c4c(sc(C)c4C)-n4c(C)nnc43)cc2)C(C)(C)C)cc1` [Example 132, (2S,4R)-1-[(2S)-2-{[4-(3-{2-[(9S)-7-(4-chlorophenyl)-4,5,13-trimethyl-3-thia-1,8,11,12-tetraazatricyclo[8.3.0.0^2,^6]trideca-2(6),4,7,10,12-pentaen-9-yl]acetamido}propoxy)phenyl]formamido}-3,3-dimethylbutanoyl]-4-hydroxy-N-[(1S)-1-[4-(4-methyl-1,3-thiazol-5-yl)phenyl]ethyl]pyrrolidine-2-carboxamide], the Emax came out at 99% and the half-maximal degradation concentration (DC50) was less than 0.01 µM.

Consider `Cc1ncsc1-c1ccc([C@H](C)NC(=O)[C@@H]2C[C@@H](O)CN2C(=O)[C@@H](NC(=O)/C=C/c2ccc(F)c(O[C@H](C)CNC(=O)C[C@@H]3N=C(c4ccc(Cl)cc4)c4c(sc(C)c4C)-n4c(C)nnc43)c2)C(C)(C)C)cc1` [Example 161], for which the Emax came out at 97% and the DC50 is less than 0.01 µM.

Take `Cc1ncsc1-c1ccc([C@H](C)NC(=O)[C@@H]2C[C@@H](O)CN2C(=O)[C@@H](NC(=O)/C=C/c2cc(F)cc(OC(C)CNC(=O)C[C@@H]3N=C(c4ccc(Cl)cc4)c4c(sc(C)c4C)-n4c(C)nnc43)c2)C(C)(C)C)cc1` (stereo partly shown) [Example 188]: the Emax came out at 95.4% and the DC50 was less than 0.01 µM.

Take `Cc1ncsc1-c1ccc(CNC(=O)[C@@H]2C[C@@H](O)CN2C(=O)[C@@H](NC(=O)COCCOCCOCCOc2ccc(NC(=O)C[C@@H]3N=C(c4ccc(Cl)cc4)c4c(sc(C)c4C)-n4c(C)nnc43)cc2)C(C)(C)C)cc1` [Example 11]: the Emax came to 99.5% and the 50% degradation concentration (DC50) fell in the range of 0.01 to 0.1 µM.

In the case of `Cc1ncsc1-c1ccc([C@H](C)NC(=O)[C@@H]2C[C@@H](O)CN2C(=O)[C@@H](C(C)C)n2cc(-c3ccnc(N4CC[C@H](NC(=O)C[C@@H]5N=C(c6ccc(Cl)cc6)c6c(sc(C)c6C)-n6c(C)nnc65)C4)c3)cn2)cc1` [Example 263], the Emax is 23.5% and the DC50 is greater than 1 µM.

Consider `Cc1ncsc1-c1ccc([C@H](C)NC(=O)[C@@H]2C[C@@H](O)CN2C(=O)[C@@H](n2cc(-c3ccnc(O[C@H]4C[C@H](NC(=O)C[C@@H]5N=C(c6ccc(Cl)cc6)c6c(sc(C)c6C)-n6c(C)nnc65)C4)c3)cn2)C(C)(C)C)cc1` [Example 234], for which the Emax worked out at 80.6% and the 50% degradation concentration (DC50) was in the range of 0.01 to 0.1 µM.

For `Cc1ncsc1-c1ccc([C@H](C)NC(=O)[C@@H]2C[C@@H](O)CN2C(=O)C(C(C)C)n2cc(-c3cc(F)cc(O[C@H]4C[C@@H](NC(=O)C[C@@H]5N=C(c6ccc(Cl)cc6)c6c(sc(C)c6C)-n6c(C)nnc65)C4)c3)cn2)cc1` (stereo partly shown) [Example 214], the Emax is 97% and the DC50 lay in the range of 0.01 to 0.1 µM.

With `Cc1sc2c(c1C)C(c1ccc(Cl)cc1)=N[C@@H](CC(=O)NCCOCCCOCC(=O)N[C@H](C(=O)N1C[C@H](O)C[C@H]1C(=O)NCc1ccc(Cl)cc1)C(C)(C)C)c1nnc(C)n1-2` [Example 76], the Emax was 58.6% and the DC50 lay within 0.1 to 1 µM.

For the compound `Cc1ncoc1-c1ccc([C@H](C)NC(=O)[C@@H]2C[C@@H](O)CN2C(=O)[C@@H](C(C)C)n2cc(-c3ccnc(O[C@H]4C[C@@H](NC(=O)C[C@@H]5N=C(c6ccc(Cl)cc6)c6c(sc(C)c6C)-n6c(C)nnc65)C4)c3)cn2)cc1` [Example 276], the Emax came out at 36% and the DC50 was greater than 1 µM.

Turning to `Cc1ncsc1-c1ccc([C@H](C)NC(=O)[C@@H]2C[C@@H](O)CN2C(=O)[C@@H](NC(=O)COC[C@H](O)CN2CCN(C(=O)C[C@@H]3N=C(c4ccc(Cl)cc4)c4c(sc(C)c4C)-n4c(C)nnc43)CC2)C(C)(C)C)cc1` [Example 328], the Emax worked out at 61% and the half-maximal degradation concentration (DC50) fell in the range of 0.1 to 1 µM.

As to `Cc1ncsc1-c1ccc([C@H](C)NC(=O)[C@@H]2C[C@@H](O)CN2C(=O)[C@@H](NC(=O)CCc2ccnc(O[C@H]3C[C@@H](NC(=O)C[C@@H]4N=C(c5ccc(Cl)cc5)c5c(sc(C)c5C)-n5c(C)nnc54)C3)c2)C(C)(C)C)cc1` [Example 191], the Emax turned out to be 95% and the DC50 is less than 0.01 µM.

Take `Cc1ncsc1-c1ccc(CNC(=O)[C@@H]2C[C@@H](O)CN2C(=O)[C@@H](NC(=O)COCCCOCCOc2ccc3c(c2)c2c(C(N)=O)cc(-c4c(C)noc4C)cc2n3Cc2ccccc2)C(C)(C)C)cc1` [Example 116, 9-benzyl-2-(dimethyl-1,2-oxazol-4-yl)-6-{2-[3-({[(2S)-1-[(2S,4R)-4-hydroxy-2-({[4-(4-methyl-1,3-thiazol-5-yl)phenyl]methyl}carbamoyl)pyrrolidin-1-yl]-3,3-dimethyl-1-oxobutan-2-yl]carbamoyl}methoxy)propoxy]ethoxy}-9H-carbazole-4-carboxamide]: the Emax worked out at 100% and the 50% degradation concentration (DC50) lay in the range of 0.01 to 0.1 µM.

Turning to `Cc1ncsc1-c1ccc([C@H](C)NC(=O)[C@@H]2C[C@@H](O)CN2C(=O)[C@H](C(C)C)n2cc(-c3ccc(N4CC(NC(=O)C[C@@H]5N=C(c6ccc(Cl)cc6)c6c(sc(C)c6C)-n6c(C)nnc65)C4)nc3)cn2)cc1` [Example 265], the Emax turned out to be 95.9% and the DC50 was in the range of 0.01 to 0.1 µM.

Consider `Cc1ncsc1-c1ccc([C@H](C)NC(=O)[C@@H]2C[C@@H](O)CN2C(=O)[C@@H](NC(=O)COCCOCCCOc2ccc([C@H](C)NC(=O)CC3N=C(c4ccc(Cl)cc4)c4c(sc(C)c4C)-n4c(C)nnc43)cc2)C(C)(C)C)cc1` (stereo partly shown) [Example 108], for which the Emax is 95.4% and the half-maximal degradation concentration (DC50) was 0.1 to 1 µM.

Regarding `Cc1ncsc1-c1ccc([C@H](C)NC(=O)[C@@H]2C[C@@H](O)CN2C(=O)[C@@H](NC(=O)CCc2cc(F)cc(O[C@H]3C[C@@H](NC(=O)C[C@@H]4N=C(c5ccc(Cl)cc5)c5c(sc(C)c5C)-n5c(C)nnc54)C3)c2)C(C)(C)C)cc1` [Example 183, (2S,4R)-1-[(2S)-2-(3-{3-fluoro-5-[(1,3-cis)-3-{2-[(9S)-7-(4-chlorophenyl)-4,5,13-trimethyl-3-thia-1,8,11,12-tetraazatricyclo[8.3.0.0^2,^6]trideca-2(6),4,7,10,12-pentaen-9-yl]acetamido}cyclobutoxy]phenyl}propanamido)-3,3-dimethylbutanoyl]-4-hydroxy-N-[(1S)-1-[4-(4-methyl-1,3-thiazol-5-yl)phenyl]ethyl]pyrrolidine-2-carboxamide], the Emax was 99% and the 50% degradation concentration (DC50) was less than 0.01 µM.

As to `Cc1ncsc1-c1ccc(CNC(=O)[C@@H]2C[C@@H](O)CN2C(=O)[C@@H](NC(=O)COCC#CC#CCOc2ccc([C@@H](C)NC(=O)C[C@@H]3N=C(c4ccc(Cl)cc4)c4c(sc(C)c4C)-n4c(C)nnc43)cc2)C(C)(C)C)cc1` [Example 43, (2S,4R)-1-[(2S)-2-{2-[(6-{4-[(1R)-1-{2-[(9S)-7-(4-chlorophenyl)-4,5,13-trimethyl-3-thia-1,8,11,12-tetraazatricyclo[8.3.0.0^2,^6]trideca-2(6),4,7,10,12-pentaen-9-yl]acetamido}ethyl]phenoxy}hexa-2,4-diyn-1-yl)oxy]acetamido}-3,3-dimethylbutanoyl]-4-hydroxy-N-{[4-(4-methyl-1,3-thiazol-5-yl)phenyl]methyl}pyrrolidine-2-carboxamide], the Emax stood at 100% and the DC50 is 0.01 to 0.1 µM.
